According to the NIST ThermoML archive (doi:10.1021/acs.jced.7b00135):
Where “and” joins values, the source holds several entries; their conditions need not be identical. Equal entries are not always repeated.

How the values were obtained:
[1] = Liquid, Closed cell (Static) method
[2] = wn = mass fraction of the nth substance listed; details: 100 kPa, Liquid; for viscosity: Capillary tube (Ostwald / Ubbelohde) method; for mass density: Vibrating tube method

O [water]
[1]
Details | vapor or sublimation pressure
274.15 K | 0.661 kPa and 0.657 kPa
278.15 K | 0.873 kPa
279.48 K | 0.953 kPa
283.15 K | 1.228 kPa
286.16 K | 1.508 kPa
291.39 K | 2.094 kPa
293.14 K | 2.337 kPa
293.15 K | 2.339 kPa
296.31 K | 2.839 kPa
296.32 K | 2.834 kPa
298.81 K | 3.288 kPa
301.37 K | 3.827 kPa
303.15 K | 4.247 kPa
303.57 K | 4.36 kPa
307.73 K | 5.507 kPa
308.26 K | 5.666 kPa
312.87 K | 7.275 kPa
313.07 K | 7.345 kPa
313.15 K | 7.385 kPa
314.62 K | 7.977 kPa
318.13 K | 9.585 kPa and 9.578 kPa
322.99 K | 12.26 kPa
323.1 K | 12.32 kPa
323.15 K | 12.35 kPa
323.17 K | 12.36 kPa
328.14 K | 15.75 kPa
328.88 K | 16.31 kPa
333.15 K | 20.06 kPa and 19.95 kPa
343.15 K | 31.28 kPa and 31.2 kPa
353.15 K | 47.45 kPa and 47.41 kPa
363.15 K | 70.21 kPa and 70.18 kPa
373.15 K | 101.42 kPa and 101.42 kPa
383.15 K | 143.29 kPa and 143.38 kPa
393.15 K | 198.75 kPa and 198.67 kPa
403.15 K | 270.22 kPa and 270.28 kPa
413.15 K | 361.64 kPa and 361.54 kPa
423.15 K | 476.33 kPa and 476.17 kPa
433.15 K | 618.34 kPa and 618.24 kPa
443.15 K | 792.15 kPa and 792.19 kPa
453.15 K | 1002.7 kPa and 1002.8 kPa
463.15 K | 1255.2 kPa and 1255.2 kPa
468.15 K | 1398.9 kPa
470.15 K | 1459.7 kPa
471.15 K | 1491 kPa and 1490.9 kPa

O=S(=O)([N-]S(=O)(=O)C(F)(F)F)C(F)(F)F.[Li+] [lithium bis((trifluoromethyl)sulfonyl)amide] + O
[2]
Details | mass density, 298.15 K [kg/m3] | mass density, 323.15 K [kg/m3] | mass density, 348.15 K [kg/m3] | mass density, 373.15 K [kg/m3] | viscosity, 298.15 K [mPa·s] | viscosity, 323.15 K [mPa·s] | viscosity, 348.15 K [mPa·s] | viscosity, 373.15 K [mPa·s]
w1 = 0.2739 | 1160 | 1148 | 1131 | 1109 | 1.54 | 0.88 | 0.59 | 0.48
w1 = 0.4871 | 1325 | 1304 | 1282 | 1258 | 2.74 | 1.5 | 1 | 0.68
w1 = 0.6633 | 1493 | 1467 | 1440 | 1401 | 5.34 | 2.83 | 1.82 | 1.54
w1 = 0.8024 | 1654 | 1624 | 1598 | 1557 | 18.23 | 8.75 | 5.2 | 3.42
